We go through eleven compounds from article PMC6627197, “Development of a High Throughput Screen for the Identification of Inhibitors of Peptidoglycan O-Acetyltransferases, New Potential Antibacterial Targets” (Antibiotics, 2019).

Data set [1] deals with T1, SaOatA (Staphylococcus aureus, UniProt Q2FV54).
T1 sequence (Q2FV54 435-603): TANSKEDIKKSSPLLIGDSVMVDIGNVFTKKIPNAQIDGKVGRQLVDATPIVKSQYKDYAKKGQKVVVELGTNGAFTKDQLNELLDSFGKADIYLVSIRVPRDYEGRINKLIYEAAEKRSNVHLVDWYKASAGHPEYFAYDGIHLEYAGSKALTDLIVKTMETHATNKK
The data set can be described thus: SaOatA esterase inhibition, chromogenic assay with pNP-Ac as substrate. It counts as biochemical. The procedure: (§1) With fluorometric assays, fluorescence quenching by compounds in the libraries could lead to their false identification as inhibitors. Thus, to confirm their inhibitory activity, we also tested esculin, esculetin, and scopoletin as inhibitors of PatBΔ69 and SaOatAΔ435 esterase activity using the chromogenic pNP-Ac as substrate. […] .
(§2) Hits which were seen to affect NgPatBΔ100 esterase activity in a dose dependent manner were also tested as inhibitors of the enzyme (0.75 µM, final concentration) using 2 mM pNP-Ac as substrate to identify false positives, due to fluorescence quenching under similar assay conditions. Similarly, hits which were seen to affect SaOatAΔ445 esterase activity in a dose dependent manner were also tested as inhibitors of the enzyme at 1.5 µM (final concentration) using 1.1 mM pNP-Ac.

Data set [2] has as its target T2, NgPatB (Neisseria gonorrhoeae, UniProt Q5F966). The experiment in a line: NgPatB esterase inhibition, fluorometric assay with 4MU-Ac as substrate (HTS, dose response, Ki). It counts as biochemical. The conditions noted are these: for activity at 10 µM: pH 7, read-out: NgPatB 4MU-Ac 1° Screen (% RA); for Mode of inhibition of NgPatB: 4MU-Ac as substrate, double reciprocal plot.
Procedure: Determinations of Ki and mode of inhibition of NgPatBΔ100 were conducted using 4MU-Ac as a substrate. […] Initial velocities of substrate hydrolysis were obtained by fluorescence emission at 420 nm (390 nm excitation).
A large scale HTS was conducted at the SPARC BioCentre Drug Discovery Facility (The Hospital for Sick Children, Toronto, Canada) to identify additional inhibitors of PatBΔ100 acetylesterase activity. A total of 68,928 compounds were tested in singlicate, including 14,400 from the Maybridge HitFinder Collection, 50,000 from the ChemBridge DIVERset Collection, and 4,480 compounds representing plates 1–15 of the GlycoNET ChemBridge Collection maintained at the facility. The 4MU-Ac served as the substrate in the 384-well microtiter plate (NUNC 262260) fluorescent assay described above. The assay was optimized for use with this facility by altering enzyme and substrate concentrations, in addition to incubation times and reaction volume. As for the pilot screen, a Z’ for the assay was determined using Equation (1). […] This was followed by dispensing final concentrations of 20 µM compounds from the Maybridge HitFinder and ChemBridge DIVERset Collections or 10 µM compounds from the GlycoNET ChemBridge Collection using an Echo® 550 acoustic dispenser (Labcyte).

Data set [3] concerns the target T1, SaOatA. To be noted: cited from earlier work.
In data set [4] the target is T2, NgPatB. The data set can be described thus: NgPatB esterase inhibition, chromogenic assay with pNP-Ac as substrate. In kind it is biochemical. The procedure: as §1, §2
The target in data set [5] is T1, SaOatA. The experiment in a line: biochemical. To be noted: for activity at 10 µM: pH 7, read-out: SaOatA 4MU-Ac 1° Screen (% RA).
For a further data set, the system named is N. gonorrhoeae FA1090. The data set can be described thus: Microtiter plate growth / MIC assay, N. gonorrhoeae.
Another data set deals with S. aureus ATCC 6538. The experiment in a line: Microtiter plate growth / MIC assay, S. aureus. The conditions noted are these: Staphylococcus aureus, ATCC6538, read-out: Growth of S. aureus ATCC 6538, % of control growth level reached.
A further data set relates to E. coli BL21. The experiment in a line: Microtiter plate growth / MIC assay, E. coli (negative control organism). To be noted: for Effect on growth of E. coli: within solubility limits.
Data set [6] in a line: Solubility limit in growth assays.
Data set [7] concerns the target SaOatA (Staphylococcus aureus, UniProt Q2FV54). In kind it is biochemical. To be noted: variant SaOatA445 (SaOatAΔ445), 5 µM enzyme, pH 6.5.
Data set [8] has as its target T2, NgPatB. It counts as biochemical. The conditions noted are these: 3 µM enzyme, pH 7.0.
Data set [9] concerns the target T1, SaOatA. The conditions noted are these: 10 µM.
Where [10] appears, read: read-out: SaOatA 4MU-Ac IC50, 4MU-Ac as substrate, values marked 2 in Table 1.
Setting [11] is: listed as benzothiazolyl-pyrazolo-pyridine.

Molecules are shown by their SMILES. In brackets after ≈: the same amount, converted by molar mass. Entries after “also recorded” stand apart in the source; their conditions may differ. Read-outs that look alike come from different tables or passages of the source.

T2 sequence (Q5F966 entry or part of it): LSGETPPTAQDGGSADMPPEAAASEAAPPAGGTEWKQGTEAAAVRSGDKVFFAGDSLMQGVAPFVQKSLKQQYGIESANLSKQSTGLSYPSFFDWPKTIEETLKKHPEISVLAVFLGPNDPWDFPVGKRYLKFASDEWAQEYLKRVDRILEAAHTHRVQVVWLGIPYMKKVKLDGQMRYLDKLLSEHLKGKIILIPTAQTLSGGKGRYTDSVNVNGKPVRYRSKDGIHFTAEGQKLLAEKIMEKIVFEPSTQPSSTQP

For `O=c1ccc2ccc(O)cc2o1` [Umbelliferone, 7-hydroxycoumarin], the IC50 against SaOatA [1] was above 3000 µM; at NgPatB [2] it was 530 ± 70 µM; on SaOatA [3] (setting [10]) it was 98.5 ± 1.1 µM; against NgPatB [4], above 3000 µM.

On to `COc1cc2oc(=O)ccc2cc1O` [Isoscopoletin], for which the activity at 10 µM worked out at 53.5% at NgPatB [2] and 115% at SaOatA [5].

Regarding `O=c1ccc2cc(O)c(O)cc2o1` [Esculetin], the IC50 is 600 ± 140 µM against SaOatA [1], 53.1 ± 1 µM against NgPatB [2], 106 ± 1.2 µM on SaOatA [3] (setting [10]) and 853 ± 79 µM on NgPatB [4]. In addition, the activity at 512 µg/mL in the data set with N. gonorrhoeae FA1090 (Neisseria gonorrhoeae, FA1090, read-out: Growth of N. gonorrhoeae FA1090, % of control growth level reached) is 25%; in the data set with S. aureus ATCC 6538, 10%. The Ki at NgPatB [2] is 86.7 ± 4.7 µM. For the same compound, the “Mode of inhibition of NgPatB” value on NgPatB [2] is “competitive inhibitor”. Further, the activity at 10 µM came to 55.7% on NgPatB [2] and 71% on SaOatA [5]. In addition, the MIC in the data set with E. coli BL21 (Escherichia coli, BL21, read-out: MIC, E. coli BL21) was 512 µg/mL (≈ 2870 µM).

Regarding `CCCCn1c(C)c2c(=O)n(-c3nc4ccccc4s3)[nH]c2cc1=O` [Compound 89224], in [6], the solubility is around 177 µg/mL (≈ 499 µM). Further, in the data set on N. gonorrhoeae FA1090 (177 µg/mL, OD 600 nm vs control lacking compound), the “Reduction in growth of N. gonorrhoeae” value stood at 90%. For the same compound, on NgPatB [2], the midpoint of inhibition, the IC50, lay at 22.1 ± 1.2 µM; the affinity, expressed as Ki, was 126 ± 19 µM; the “Mode of inhibition of NgPatB” value was “mixed/non-competitive inhibitor”; the activity at 10 µM came out at 78.8%. In addition, the “Mode of inhibition of NgPatB” value at NgPatB [2] (setting [11]) was “non-competitive inhibitor”. The activity at 10 µM at SaOatA [5] was found to be 99.8%. Further, the “Effect on growth of E. coli” value with E. coli BL21 is on record as “did not affect the growth; also recorded: not affected”. Further, in the data set on E. coli BL21 (setting [11]), the “Effect on growth of E. coli” value is recorded as “unaffected”.

For `COc1cc2ccc(=O)oc2cc1O` [Scopoletin], the IC50 at SaOatA [1] is 1170 ± 100 µM; at NgPatB [2] it was 47.9 ± 4 µM; on SaOatA [3] (setting [10]), 103 ± 1.1 µM; against NgPatB [4] it was 792 ± 7 µM. In data set [6], this compound showed a solubility of 480 µg/mL (≈ 2500 µM). Moreover, the results for the activity at 10 µM at NgPatB [2] and at SaOatA [5] were 30% and 21.4%, respectively.

Regarding `O=c1ccc2cc(O[C@@H]3O[C@H](CO)[C@@H](O)[C@H](O)[C@H]3O)c(O)cc2o1` [Esculin], the IC50 against SaOatA [1] was 1350 ± 150 µM; on NgPatB [2], 49.7 ± 3 µM; at SaOatA [3] (setting [10]) it was 75.8 ± 1 µM; on NgPatB [4], 923 ± 9 µM. For the same compound, the concentration in solution in data set [6] (solubility) came to 2050 µg/mL (≈ 6020 µM). Moreover, the figures for the remaining activity at 10 µM on NgPatB [2] (read-out: NgPatB 4MU-Ac 1° Screen (% RA)) and on SaOatA [5] (read-out: SaOatA 4MU-Ac 1° Screen (% RA)) were 38.4% and 47.8%, respectively.

As for `Cc1cc(=O)oc2cc(O)ccc12` [Hymercrome, 7-hydroxy-4-methyl-coumarin, reference compound], the IC50 against SaOatA [1] was above 3000 µM; against NgPatB [2], 615 ± 10 µM; against NgPatB [4], above 3000 µM; against SaOatA [5], above 3000 µM. Moreover, the activity at 10 µM at NgPatB [2] came to 42.9%; on SaOatA [5], 67.8%.

As to `O=c1ccc2ccccc2o1` [Coumarin, 1,2-benzopyrone], the results for the activity at 10 µM at NgPatB [2] and at SaOatA [5] were 82.5% and 106%, respectively.

On to `CC(=O)Oc1ccc([N+](=O)[O-])cc1` [pNP-Ac, p-nitrophenyl acetate], for which the Michaelis-Menten constant (Km) at SaOatA [7] is 1140 µM; at NgPatB [8] (variant NgPatB69 (NgPatBΔ69)), 1770 µM; on NgPatB [8] (variant NgPatB100 (NgPatBΔ100)), 2060 µM. The kcat on SaOatA [7] amounted to 0.047 sec‐1; on NgPatB [8] (variant NgPatB69 (NgPatBΔ69)) it was 0.14 sec‐1; at NgPatB [8] (variant NgPatB100 (NgPatBΔ100)) it was 0.44 sec‐1.

As to `O=C1c2ccccc2C(=O)c2c(O)c(O)cc(O)c21` [purpurin, 1,2,4-trihydroxy-anthraquinone, reference compound], the “Identified in pilot HTS as inhibitor of SaOatA” value at SaOatA [9] is “not identified”. For the same compound, the “Identified in pilot HTS as inhibitor of NgPatB” value on NgPatB [2] (pilot HTS, 10 µM) was “not identified”. Moreover, the IC50 on SaOatA [3] (read-out: IC50 for SaOatA, earlier preliminary characterization) is around 1100 µM.

With `Cc1cc(=O)oc2cc(O)c(O)cc12` [4-Me-esculetin], the activity at 10 µM at NgPatB [2] is 92%; on SaOatA [5], 98.3%.

A word on the IC50: it is the point on the concentration scale where inhibition reaches its midpoint. A word on the Ki: it is the equilibrium dissociation constant of an inhibitor or competing ligand from its target. By MIC is commonly meant the smallest concentration in the dilution series that meets the test's criterion for growth inhibition. Usually solubility stands for how much of the substance goes into solution per volume. The low end stands for little dissolved substance, the high end for much dissolved substance. As usually defined, the Km is the substrate concentration at which the rate is half of its maximum.
